Columns and labels:
DLD1 cells = test: PARP proliferation assay (7 day compound dosing), WT DLD1; assay type: cell-based; conditions: Homo sapiens, DLD-1, 168 h, read-out: WT DLD-1 prolif. 7 d IC50
Experimental: DLD1 and BRCA2 (−/−) DLD1 cells were harvested to a density of 5000 cells/ml and 2.5E4 cells/ml respectively in complete media, 40 μL/well seeded into 384-well plates (Greiner, Kremsmunster, Austria; 781090) using a Multidrop Combi then incubated at 37° C., 5% CO2 overnight. Next day (Day 1) using a Multidrop Combi add sytox green (5ul, 2 uM) and saponin (10 ul, 0.25% stock) to a day 0 plate, seal the plate using a black adhesive lid and incubate for >3 h at it. Cells were imaged using Cell Insight (Thermo Fisher) fitted with a 4x objective. Test compounds are added using an Echo 555 and placed in incubator maintained at 37° C., 5% CO2 and incubated for 7 days. On Day 8 add sytox green (5ul, 2 uM) and then saponin (10 ul, 0.25% stock) to plates, seal the plate using a black adhesive lid and incubate for >3 h at it. Read all cells on the Cell Insight with 4× Objective. The rate of proliferation is determined in Genedata by assessing the total cell number output from the Cell Insight for Day 0 and Day 8 plates.

[1] = system: PARylation in BT245 H3K27M paediatric glioma model; test: PARylation inhibition in paediatric glioma model; assay type: cell-based
[2] = Determination of Kpuu in rat; assay type: in vivo, Han Wistar rats; conditions: Han Wistar, rat, brain and plasma (unbound brain-to-plasma ratio), 2 µmols/kg/h, intravenous infusion
Experimental: The fraction unbound was determined using the RED Device.
Compounds were prepared as 10 mM solutions in DMSO. […] If less than 9 test compounds were included then the addition volume of blank DMSO was added to make up volume to 40 uL.
Frozen plasma was thawed in a water bath at 37° C. Plasma was then centrifuged for 2 minutes at 4,000 rpm to remove clots and collect supernatant into a fresh tube. The pH of the plasma was checked and only used if within the range of pH 7 to pH 8. 3 μL of the working solution of each cassette was added to 597 μL of blank plasma and vortexed for 5 minutes at 1000 rpm. The final percent volume of organic solvent is 0.5% and the final concentration for test compound was 5 μM. Immediately transfer 50 μL of the spiked plasma suspension to a 96-well plate to act as T=0 control sample. The samples are treated the same as the samples after incubation. The remaining plasma is kept at 37° C. prior to starting the dialysis.
Place inserts open end up into the wells of the base plate. Add 300 μL of spiked plasma sample into the sample chamber, indicated by the red ring. Add 500 μL of phosphate buffer (pH 7.4) to the buffer chamber. Cover the unit with gas permeable lid and incubate for 18 hours at 37° C. at 300 rpm with 5% CO2 on an orbital shaker in the CO2 incubator. At the end of incubation, remove lid and pipette 50 μL of post-dialysis samples from both buffer and plasma chambers into separated 96-well plate for analysis, respectively.
Samples were matrix matched by adding 50 μL of blank rat plasma to the buffer samples and an equal volume of PBS to the collected plasma samples and vortexed to mix. 400 μL of acetonitrile containing an appropriate internal standard (IS) was added to precipitate protein and release compound and mixed by vortexing the plate for 10 minutes followed by centrifugation for 30 minutes at 4,000 rpm. 250 μL of the supernatant was transferred to new 96-well plates and centrifuged again (4,000 rpm, 30 minutes). 100 μL of the supernatant was then transferred to new 96-well plates and mixed with 100 μL of distilled water to each sample by vortex for 5 minutes at 1,000 rpm. Samples were analysed by LC-MS/MS and drug concentrations were determined vs a calibration curve produced from spiked blank plasma with a typical range of 1-7500 nM.
The % unbound was determined as % Unbound=(Conc. buffer chamber/Conc. plasma chamber)×100%. Fraction unbound=% unbound/100.
The principle for the method for the determination of volume unbound in brain slices has previously been published (Development of a High-Throughput Brain Slice Method for Studying Drug Distribution in the Central Nervous System; Fridén et al; Drug Metabolism and Disposition, 2009, 37 (6) 1226-1233). In brief:
Compound stock solutions were prepared in DMSO at the concentration of 10 mM. […] If less than 9 test compounds were included, then blank DMSO was added to make up volume to 40 uL. On the day of the experiment 4 ul was diluted in 40 mL ECF buffer to give a 100 nM solution of each test compounds which was then pre-warmed to 37° C. before the start of the incubation.
To prepare brain slices, rats weighing approximately 300 g were terminally anesthetised with isoflurane by inhalation, the brain carefully removed and immersed in ice-cold oxygenated ECF buffer. The rat brain was transferred to a dish containing ice-cold, 02 supplied ECF buffer and trimmed with razor before gluing to the tray of a microslicer with the brain placed with the back section surface down centrally on the tray. Ice cold ECF buffer was added to harden the glue and wet the brain. The tray was placed in the microslicer and using a suitable cutting speed, 100-400 μm were cut slices until the striatum area appeared. Four to six for each brain, 300 μm thick, coronal slices of striatum areas were cut and placed in ice cold 02 supplied buffer until incubation. Six slices were transferred to the incubation tray containing 40 mL pre warmed (37° C.) cassette mixture. […]

With `CNC(=O)c1ccc(N2CCN(Cc3ccc4nc(C)c(=O)[nH]c4c3F)CC2)c(F)n1` [Example 20, 6-fluoro-5-[4-[(5-fluoro-2-methyl-3-oxo-4H-quinoxalin-6-yl)methyl]piperazin-1-yl]-N-methyl-pyridine-2-carboxamide] the IC50 (DLD1 cells) was greater than 30 µM, the “IC95 for PARylation inhibition” value [1] was 0.004 µM and the Kp uu at 4 h [2] was 0.27.

From patent US20250082630A1, “METHODS OF TREATING BRAIN TUMOURS AND NEUROBLASTOMAS” (AstraZeneca AB, priority 2021, published 2025)
